# Target: human 11β-HSD1 (Homo sapiens, UniProt P28845)
# Test: biochemical
# Settings: for inhibition at 0.1 µM: read-out: Average % inhibition at 100 nM; for inhibition at 0.1111 µM: read-out: Average % inhibition at 111.1 nM
# Procedure: All reactions were carried out at rt in 96 well clear flexible PET Microbeta plates (PerkinElmer). […] The reaction was stopped by adding 50 μl of the SPA beads suspension containing 10 μM 18β-glycyrrhetinic acid, 5 mg/ml protein A coated YSi SPA beads (GE Healthcare) and 3.3 μg/ml of anti-cortisol antibody (East Coast Biologics) in Superblock buffer (Bio-Rad). The plates were shaken for 120 minutes at rt, and the SPA signal corresponding to [^3H]cortisol was measured on a Microbeta plate reader.
# human 11β-HSD1, sequence (P28845 whole entry): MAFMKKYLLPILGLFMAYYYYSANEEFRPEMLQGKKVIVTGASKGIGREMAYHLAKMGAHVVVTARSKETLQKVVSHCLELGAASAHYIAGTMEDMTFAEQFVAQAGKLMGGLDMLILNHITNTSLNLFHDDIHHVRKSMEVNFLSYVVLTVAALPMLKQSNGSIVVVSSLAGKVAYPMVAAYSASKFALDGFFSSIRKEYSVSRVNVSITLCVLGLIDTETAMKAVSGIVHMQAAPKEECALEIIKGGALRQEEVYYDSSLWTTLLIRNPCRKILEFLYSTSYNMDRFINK
IC50 [nM],inhibition at 0.1 µM [%],inhibition at 0.1111 µM [%],SMILES
< 100,94.5,–,"C[C@@H](c1ccc(-c2ccc(F)cc2F)cc1)N1CCC(c2ccccc2)CC1=O (mixture of isomers) [Example 5, 1-((1S)-1-(2′,4′-difluorobiphenyl-4-yl)ethyl)-4-phenylpiperidin-2-one]"
< 100,90.1,–,"C[C@@H](c1ccc(Br)cc1)N1CCC(c2ccc(F)cc2)OC1=O (mixture of isomers) [Example 7, 3-((1S)-1-(4-bromophenyl)ethyl)-6-(4-fluorophenyl)-1,3-oxazinan-2-one]"
100 to 1000,–,-5.9,"O=C1O[C@@H](c2ccccc2)CCN1c1cccc2ccccc12 [Example 3, (R)-3-(naphthalen-1-yl)-6-phenyl-1,3-oxazinan-2-one]"
100 to 1000,–,22.5,"O=C1OC(c2ccccc2Cl)CCN1c1cccc(Br)c1 (stereo not drawn) [Example 4, 3-(3-bromophenyl)-6-(2-chlorophenyl)-1,3-oxazinan-2-one]"
< 100,89.4,–,"COc1ccc([C@H](C)N2CCC(c3ccc(F)cc3)CC2=O)cc1 (stereo partly drawn) [Example 6, 4(-4-fluorophenyl)-1-((1S)-1-(4-methoxylphenyl)ethyl)piperidin-2-one]"
< 100,100,–,"C[C@@H](c1ccc(Br)cc1)N1CCCC(c2ccccc2)NC1=O (stereo partly drawn) [Example 8, 1-((S)-1-(4-bromophenyl)ethyl)-4-phenyl-1,3-diazepan-2-one]"

# From patent US8598160B2, “Cycloalkyl lactame derivatives as inhibitors of 11-beta-hydroxysteroid dehydrogenase 1” (Vitae Pharmaceuticals, Inc., priority 2008, dated 2013)
